Tested on: human primary IBM cells
Experiment: Aggresome detection (proteostat) in primary myoblasts from IBM patients
Assay type: cell-based
Details: 4 μM for 24 h
Description: Figure 4 1-deoxy-SL species accumulate in muscle and brain tissues during aging and contribute to cellular protein aggregation. (A,B) Heat map representing the abundance of sphingolipids in (A) gastrocnemius muscle and (B) brain with and without treatment with ALT-007 in mice (ALT-007 at 1 mg/kg; DMSO at equivalent volume for 20 weeks). N = 8 per group. Data are shown as log2 fold change. Adjusted P values are indicated as follows: *adjusted P < 0.05; **adjusted P < 0.01; ***adjusted P < 0.001. (C,D) Representative images and quantification of protein aggregates upon 1-deoxy-SA (C) and P053 treatment (D) in human primary IBM cells; both were administered at 4 μM for 24 h. N = 8 per group. (E) Analysis of 1-Deoxy-Spa and 1-DeoxyCer 24:1 levels in myoblasts from healthy and IBM patients. N = 3 per group. (C–E) Quantitative data are expressed as median with IQR and compared using the Mann–Whitney U test. All tests were 2 sided. *P < 0.05, **P < 0.01, ***P < 0.001.
Primary myoblasts from IBM patients and healthy aged matched donors were provided by Hospices Civils de Lyon. Cells were grown in DMEM/F-10 supplemented with 12% FBS (Gibco) and penicillin–streptomycin (1×, Gibco). Cells were cultured on sterilized coverslips in six-well plates (Greiner BioOne, CELLSTAR, 657160). […]

CCCCCCCCCCCCCCC[C@@H](O)[C@H](C)N [1-deoxy-SA, 1-deoxy-sphinganine]
cellular protein aggregates (proteostat signal): significantly exacerbated the accumulation of cellular protein aggregates

Source: publication PMC11729425 (ACS Pharmacology & Translational Science, 2024)
